In patent US20240358692A1, “TREATMENT OF SCLERODERMA” (Aisa Pharma, Inc., priority 2023, published 2024):

Test system: participants with SSc-RP
Test: SHAQ - Visual Analog Scale - Overall Disease Severity
Assay type: in vivo, human
Text: The standard, validated, patient reported outcome measures tool for SSc patients, the Scleroderma Health Assessment Questionnaire (SHAQ), will be used to assess the participant qualify of life. Details are attached in the Appendix. The participant quality of life will be scored, and a disability index calculated for each questionnaire completed by the patient at Screening and each in-clinic visit. The absolute change in participant quality of life from baseline to the end of each dosing period will be calculated similar to frequency data as before.
The standard, validated, patient reported outcome measures tool for SSc patients, the SHAQ, was collected at the time points specified in the study schedules (FIG. 2 and FIGS. 4A and 4B) to assess the participant's quality of life. The SHAQ included a Raynaud's VAS that will also be reported separately.

[1] = Sensitivity Analysis (diagnosis of SSc), Modified ITT, Part A, Day 12, arms Cilnidipine 10 mg, Tadalafil 5 mg, Cilnidipine 10 mg + Tadalafil 5 mg
[2] = cilnidipine 10 mg (combination: + tadalafil 5 mg)
[3] = cilnidipine 20 mg (combination: + tadalafil 5 mg)

For COCCOC(=O)C1=C(C)NC(C)=C(C(=O)OC/C=C/c2ccccc2)C1c1cccc([N+](=O)[O-])c1 (stereo not drawn) [Cilnidipine], the “SHAQ Visual Analogue Scale - Overall Disease Severity, In-Clinic Visit (Day 12), Median” value (Pooled Cilnidipine (N = 8), Day 12, PP Population, Part A) was 1.300, the “% change overall SSc Disease Severity” value (Pooled Cilnidipine (n = 7), SHAQ, mITT Part A) was −60% (i.e., and the “SHAQ VAS Overall Disease Severity, Change from Baseline, Max” value (Pooled Cilnidipine, PP, Part A) was 0.20. The “SHAQ VAS Overall Disease Severity, Change from Baseline, Mean (SD)” value (Pooled Cilnidipine, PP, Part A) was −1.450 (0.9928), the “SHAQ VAS Overall Disease Severity, Change from Baseline, Median” value (Pooled Cilnidipine, PP, Part A) was −1.550 and the “SHAQ VAS Overall Disease Severity, Change from Baseline, Min” value (Pooled Cilnidipine, PP, Part A) was −3.10. The “SHAQ VAS Overall Disease Severity, Change from Baseline, Q1” value (Pooled Cilnidipine, PP, Part A) was −1.850, the “SHAQ VAS Overall Disease Severity, Change from Baseline, Q3” value (Pooled Cilnidipine, PP, Part A) was −0.950 and the “SHAQ VAS Overall Disease Severity, Day 12, Max” value (Pooled Cilnidipine, PP, Part A) was 5.20. The “SHAQ VAS Overall Disease Severity, Day 12, Median” value (Pooled Cilnidipine, PP, Part A) was 1.300, the “SHAQ VAS Overall Disease Severity, Day 12, Min” value (Pooled Cilnidipine, PP, Part A) was 0.00 and the “SHAQ VAS Overall Disease Severity, Day 12, Q1” value (Pooled Cilnidipine, PP, Part A) was 0.350. The “SHAQ VAS Overall Disease Severity, Day 12, Q3” value (Pooled Cilnidipine, PP, Part A) was 1.650, the “SHAQ VAS Overall Disease Severity, Percent Change from Baseline, Max” value (Pooled Cilnidipine, PP, Part A) was −26.8 and the “SHAQ VAS Overall Disease Severity, Percent Change from Baseline, Mean (SD)” value (Pooled Cilnidipine, PP, Part A) was −61.10 (23.658). The “SHAQ VAS Overall Disease Severity, Percent Change from Baseline, Median” value (Pooled Cilnidipine, PP, Part A) was −60.00, the “SHAQ VAS Overall Disease Severity, Percent Change from Baseline, Min” value (Pooled Cilnidipine, PP, Part A) was −100.0 and the “SHAQ VAS Overall Disease Severity, Percent Change from Baseline, Q1” value (Pooled Cilnidipine, PP, Part A) was −76.19. The “SHAQ Visual Analogue Scale - Overall Disease Severity: Change from Baseline, Median” value [1] was −1.500, the “SHAQ Visual Analogue Scale - Overall Disease Severity: In-Clinic Visit (Day 12), Median” value [1] was 1.900 and the “SHAQ Visual Analogue Scale - Overall Disease Severity: In-Clinic Visit (Day 12), Median” value (Sensitivity Analysis (diagnosis of SSc), Modified ITT, Part A, Day 12, arms Cilnidipine 20 mg, Cilnidipine 20 mg + Tadalafil 5 mg) was 1.200. The “VAS Overall Severity Change from Baseline Max” value [2] was 0.20, the “VAS Overall Severity Change from Baseline Mean” value [2] was −0.900 and the “VAS Overall Severity Change from Baseline Median” value [2] was −0.950. For the same compound, the “VAS Overall Severity Change from Baseline Min” value [2] was −1.90, the “VAS Overall Severity Change from Baseline Q1” value [2] was −1.700 and the “VAS Overall Severity Change from Baseline Q3” value [2] was −0.100. For the same compound, the “VAS Overall Severity Day 12 Max” value [2] was 5.20, the “VAS Overall Severity Day 12 Min” value [2] was 0.00 and the “VAS Overall Severity Day 12 Q1” value [2] was 0.100. For the same compound, the “VAS Overall Severity Day 12 Q3” value [2] was 3.550, the “VAS Overall Severity Percent Change from Baseline Max” value [2] was −26.8% and the “VAS Overall Severity Percent Change from Baseline Mean” value [2] was −56.96%. The “VAS Overall Severity Percent Change from Baseline Median” value [2] was −44.12%, the “VAS Overall Severity Percent Change from Baseline Min” value [2] was −100.0% and the “VAS Overall Severity Percent Change from Baseline Q1” value [2] was −100.00%. The “VAS Overall Severity Percent Change from Baseline Q3” value [2] was −26.76%, the “VAS Overall Severity Change from Baseline Max” value [3] was −1.50 and the “VAS Overall Severity Change from Baseline Mean” value [3] was −1.633,. For the same compound, the “VAS Overall Severity Change from Baseline Median” value [3] was −1.600, the “VAS Overall Severity Change from Baseline Min” value [3] was −1.80 and the “VAS Overall Severity Change from Baseline Q1” value [3] was −1.800. The “VAS Overall Severity Change from Baseline Q3” value [3] was −1.500, the “VAS Overall Severity Day 12 Max” value [3] was 1.40 and the “VAS Overall Severity Day 12 Median” value [3] was 1.200. The “VAS Overall Severity Day 12 Min” value [3] was 0.50, the “VAS Overall Severity Day 12 Q1” value [3] was 0.500 and the “VAS Overall Severity Day 12 Q3” value [3] was 1.400. For the same compound, the “VAS Overall Severity Percent Change from Baseline Max” value [3] was −51.7%, the “VAS Overall Severity Percent Change from Baseline Mean” value [3] was −62.64% and the “VAS Overall Severity Percent Change from Baseline Median” value [3] was −60.00%. For the same compound, the “VAS Overall Severity Percent Change from Baseline Min” value [3] was −76.2%, the “VAS Overall Severity Percent Change from Baseline Q1” value [3] was −76.19% and the “VAS Overall Severity Percent Change from Baseline Q3” value [3] was −51.72%.
